This experiment deals with Ba/F3-EGFR-D770_N771 insSVD C797S. The experiment can be described thus: Ba/F3 cell survival assay, EGFR D770_N771insSVD C797S. It counts as cell-based. The following applies: Ba/F3 EGFR-D770-N771ins_SVD, 48 h, read-out: BA/F3 (EGFR 0770_N771 insSVD C797S) IC50. As for the experimental part:
293T cells from ATCC were transfected with pBABEpuro expression constructs for mutant EGFR (V769_D770insASV, D770_N771insNPG, N771_P772insH, H773_V774insNPH, E746_A750del, L858R, D770_N771 insSVD C797S, E746_A750del C797S, L858R C797S, L861Q) or mutant ERBB2 (A775_G776insYVMA) and pCL-Eco packaging vector using Fugene-6 transfection reagent from Promega. Plates were incubated at 37° C. for 48 h. Retrovirus was harvested by filtering the media supernatant through a 0.45 μm filter.
Ba/F3 cells purchased from DSMZ were grown in RPMI+10% FBS+10 ng/mL IL-3 and infected with filtered retroviral supernatant at a 1:2 dilution. Polybrene was added to a concentration of 8 μg/mL, plates were spun for 90 min, and incubated overnight at 37° C. 2 μg/mL puromycin was added to the infected cells 24 h after infection and cells were continually grown in the presence of puromycin and 10 ng/mL IL-3. Following stably expressing Ba/F3 cell lines were generated: Ba/F3-EGFR-V769_D770insASV, Ba/F3-EGFR-D770_N771insNPG, Ba/F3-EGFR-N771_P772insH, Ba/F3-EG, Ba/F3-EGFR-H773_V774insNPH, Ba/F3-EGFR-E746_A750del, Ba/F3-EGFR-L858R, Ba/F3-EGFR-D770_N771 insSVD C797S, Ba/F3-EGFR-E746_A750del C797S, Ba/F3-EGFR-L858R C797S, Ba/F3-EGFR L861Q and Ba/F3-ERBB2-A775_G776insYVMA (Ba/F3—vector-control).
For cell survival assays, Ba/F3 cells were grown to a density of 1-2 million cells per mL, spun down and resuspended in media without IL-3, and replated at a concentration 200,000-500,000 cells per mL. The cells ectopically expressing WT EGFR plated with 10 ng/mL Millipore Culture grade EGF and Ba/F3 cells containing mutant EGFR or Mutant ERBB2 were cultivated without EGF. The cells ectopically expressing pBABEpuro empty vector were plated with 10 ng/mL IL-3.
2 days later, cells were plated in 50 μL in a 384 well plate at a concentration of 4000 cells per well for cells assayed in the absence of IL-3 and 2000 cells per well for cells assayed in the presence of IL-3. 100 nL of compound was added to each well using a 100 nL pin head, and plates were incubated at 37° C. for 48 h.
Cell viability was measured by adding 20 μL of Cell Titer-Glo Luminescent Cell Viability Reagent diluted 1:3 in PBS. Plates were sealed with Perkin Elmer Top-Seal, inverted several times to mix, and immediately centrifuged at 1000 rpm for 2 min. Plates were incubated in low light conditions for 8-10 min and luminescence was measured.

With `COc1c(Cl)cccc1Nc1c(-c2ccncc2OCC2(C)CCO2)[nH]c2c1C(=O)NCC2` (single isomer, unassigned; (+)) [Example 48, (+)-3-(3-chloro-2-methoxyanilino)-2-{3-[(2-methyloxetan-2-yl)methoxy]pyridin-4-yl}-1,5,6,7-tetrahydro-4H-pyrrolo[3,2-c]pyridin-4-one], the IC50 was 16.7 nM.

As for `COc1c(Cl)cccc1Nc1c(-c2ccncc2OCC2OCC2(C)C)[nH]c2c1C(=O)NCC2` (single isomer, unassigned; (+)) [Example 50, (+)-3-(3-chloro-2-methoxyanilino)-2-{3-[(3,3-dimethyloxetan-2-yl)methoxy]pyridin-4-yl}-1,5,6,7-tetrahydro-4H-pyrrolo[3,2-c]pyridin-4-one], the IC50 amounted to 35.1 nM. For the compound `COc1c(Cl)cccc1Nc1c(-c2ccncc2OCCC2CCO2)[nH]c2c1C(=O)NCC2` (single isomer, unassigned; (-)) [Example 26, (−)-3-(3-chloro-2-methoxyanilino)-2-{3-[2-(oxetan-2-yl)ethoxy]pyridin-4-yl}-1,5,6,7-tetrahydro-4H-pyrrolo[3,2-c]pyridin-4-one], the IC50 amounted to 13.7 nM. Turning to `COc1c(Cl)cccc1Nc1c(-c2ccncc2OC[C@@H]2CCO2)[nH]c2c1C(=O)NCC2` [Example 2, 3-(3-chlor-2-methoxyanilino)-2-{3-[(2S)-oxetan-2-ylmethoxy]pyridin-4-yl}-1,5,6,7-tetrahydro-4H-pyrrolo[3,2-c]pyridin-4-on], the IC50 stood at 17.5 nM.

The values above are taken from patent US20240307362A1 (priority 2019, published 2024).
